According to ChEMBL document CHEMBL5723379, “Affinity On-target Cellular Literature for EUbOPEN Chemogenomic Library” (2024):
Each block holds one molecule with its values, some of them ahead of it.

How the values were obtained:
[1] = target: Nuclear receptor subfamily 1 group D member 2 (Homo sapiens, UniProt Q14995); assay: Affinity On-target Cellular interaction: (Reporter gene assay (HEK293T cells)) EUB0001155a NR1D2; format: functional, cell-based, HEK-293T; set-up: mode of action Agonist, recommended concentration 10 uM
[2] = target: Nuclear receptor subfamily 1 group D member 1 (Homo sapiens, UniProt P20393); assay: Affinity On-target Cellular interaction: (Reporter gene assay (HEK293T cells)) EUB0001155a NR1D1; format: functional, cell-based, HEK-293T; set-up: mode of action Agonist, recommended concentration 10 uM
[3] = target: Nuclear receptor subfamily 1 group I member 2 (Homo sapiens, UniProt O75469); assay: Affinity On-target Cellular interaction: (Reporter gene assay (HEK293T cells)) EUB0002359a NR1I2; format: functional, cell-based, HEK-293T; set-up: mode of action Agonist, recommended concentration 1 uM
[4] = target: T1, Nuclear receptor ROR-gamma (Homo sapiens, UniProt P51449)
T1 sequence (P51449 whole entry): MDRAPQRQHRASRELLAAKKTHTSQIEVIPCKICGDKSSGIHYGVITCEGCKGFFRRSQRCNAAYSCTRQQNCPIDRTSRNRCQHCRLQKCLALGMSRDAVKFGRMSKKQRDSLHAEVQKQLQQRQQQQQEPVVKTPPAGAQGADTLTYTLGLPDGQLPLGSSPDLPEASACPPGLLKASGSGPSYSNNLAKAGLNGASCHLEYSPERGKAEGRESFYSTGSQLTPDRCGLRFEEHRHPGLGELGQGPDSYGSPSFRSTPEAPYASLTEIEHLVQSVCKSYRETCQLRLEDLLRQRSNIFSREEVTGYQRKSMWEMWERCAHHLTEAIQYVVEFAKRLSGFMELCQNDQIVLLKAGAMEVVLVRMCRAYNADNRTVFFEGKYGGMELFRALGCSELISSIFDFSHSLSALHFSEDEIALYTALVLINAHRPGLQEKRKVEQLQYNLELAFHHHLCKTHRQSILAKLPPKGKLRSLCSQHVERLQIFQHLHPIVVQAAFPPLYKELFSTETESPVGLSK

Adenosine kinase = Adenosine kinase (Homo sapiens, UniProt P55263); assay: Affinity On-target Cellular interaction: (Intact cell adenosine phosphorylation assay (radiochemical), IMR-32 human neuroblastoma cells) EUB0002485aCl ADK; format: functional, cell-based; set-up: mode of action Inhibitor, recommended concentration 1 uM
[5] = target: T2, Nuclear receptor ROR-beta (Homo sapiens, UniProt Q92753); assay: Affinity On-target Cellular interaction: (Reporter gene assay (HEK293T cells)) EUB0001161a RORB; format: functional, cell-based, HEK-293T; set-up: mode of action Antagonist, recommended concentration 10 uM
T2 sequence (Q92753 whole entry): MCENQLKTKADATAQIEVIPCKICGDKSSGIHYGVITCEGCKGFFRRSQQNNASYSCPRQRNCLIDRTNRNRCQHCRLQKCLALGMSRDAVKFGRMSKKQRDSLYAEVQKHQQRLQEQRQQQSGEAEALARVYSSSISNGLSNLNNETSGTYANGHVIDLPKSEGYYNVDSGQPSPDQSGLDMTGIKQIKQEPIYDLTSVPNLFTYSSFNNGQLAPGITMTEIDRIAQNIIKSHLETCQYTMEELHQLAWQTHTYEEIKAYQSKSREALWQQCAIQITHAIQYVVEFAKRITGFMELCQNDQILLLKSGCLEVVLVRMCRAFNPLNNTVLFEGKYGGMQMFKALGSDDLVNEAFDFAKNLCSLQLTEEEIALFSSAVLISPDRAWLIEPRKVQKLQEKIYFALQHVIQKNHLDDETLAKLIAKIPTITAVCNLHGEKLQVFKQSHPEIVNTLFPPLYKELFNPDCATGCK

[6] = target: Poly [ADP-ribose] polymerase 1 (Homo sapiens, UniProt P09874); assay: Affinity On-target Cellular interaction: (Inhibition of H2O2 induced PAR formation in Capan-1 cells) EUB0002633aCl PARP1; format: functional, cell-based; set-up: mode of action Inhibitor, recommended concentration 1 uM
[7] = target: Triacylglycerol hydrolase DDHD2 (Homo sapiens, UniProt O94830); assay: Affinity On-target Cellular interaction: (Inhibition of DDHD2 in HEK293T cells measured by competitive activity-based protein profiling) EUB0002612a DDHD2; format: functional, cell-based, HEK-293T; set-up: mode of action Inhibitor, recommended concentration 1 uM
[8] = target: T3, Oxysterols receptor LXR-alpha (Homo sapiens, UniProt Q13133); assay: Affinity On-target Cellular interaction: (Reporter gene assay (HEK293T cells)) EUB0001482aCl NR1H3; format: functional, cell-based, HEK-293T; set-up: mode of action Agonist, recommended concentration 10 uM
T3 sequence (Q13133 whole entry): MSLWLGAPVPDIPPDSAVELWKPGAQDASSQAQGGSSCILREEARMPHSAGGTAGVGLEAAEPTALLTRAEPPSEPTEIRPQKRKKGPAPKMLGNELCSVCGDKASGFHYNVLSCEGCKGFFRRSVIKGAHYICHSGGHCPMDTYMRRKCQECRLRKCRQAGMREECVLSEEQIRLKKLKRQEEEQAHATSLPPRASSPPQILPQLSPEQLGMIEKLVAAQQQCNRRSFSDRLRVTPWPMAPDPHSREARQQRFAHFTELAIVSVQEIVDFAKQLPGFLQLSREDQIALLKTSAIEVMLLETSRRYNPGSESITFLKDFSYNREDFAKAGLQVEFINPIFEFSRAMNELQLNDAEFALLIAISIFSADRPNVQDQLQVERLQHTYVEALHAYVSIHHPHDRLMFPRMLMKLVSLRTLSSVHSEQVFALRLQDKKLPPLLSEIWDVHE

[9] = target: T4, Oxysterols receptor LXR-beta (Homo sapiens, UniProt P55055); assay: Affinity On-target Cellular interaction: (Reporter gene assay (HEK293T cells)) EUB0001482aCl NR1H2; format: functional, cell-based, HEK-293T; set-up: mode of action Agonist, recommended concentration 10 uM
T4 sequence (P55055 whole entry): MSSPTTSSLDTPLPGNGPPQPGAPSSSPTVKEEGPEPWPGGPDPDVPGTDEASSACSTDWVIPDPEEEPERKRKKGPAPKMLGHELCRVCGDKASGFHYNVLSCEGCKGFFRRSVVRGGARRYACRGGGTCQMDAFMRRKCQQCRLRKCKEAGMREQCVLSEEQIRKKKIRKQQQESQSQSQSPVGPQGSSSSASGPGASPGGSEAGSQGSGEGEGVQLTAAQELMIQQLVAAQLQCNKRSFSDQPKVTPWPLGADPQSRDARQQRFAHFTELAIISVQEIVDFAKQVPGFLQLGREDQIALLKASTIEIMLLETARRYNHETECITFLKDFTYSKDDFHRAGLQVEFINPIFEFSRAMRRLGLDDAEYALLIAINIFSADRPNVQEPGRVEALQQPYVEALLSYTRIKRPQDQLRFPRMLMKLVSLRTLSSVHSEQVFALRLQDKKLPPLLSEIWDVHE

[10] = target: Sodium- and chloride-dependent glycine transporter 1 (Homo sapiens, UniProt P48067); assay: Affinity On-target Cellular interaction: (Inhibition of [14C]glycine uptake in human neuroblastoma cells transfected with SLC6A9) EUB0002626aCl SLC6A9; format: functional, cell-based, BE(2)-C; set-up: mode of action Inhibitor, recommended concentration 1 uM
[11] = target: Histone-lysine N-methyltransferase EZH1 (Homo sapiens, UniProt Q92800); assay: Affinity On-target Cellular interaction: (Protein substrate methylation in WSU-DLCL2 cells) EUB0002228a EZH1; format: functional, cell-based, WSUDLCL2; set-up: mode of action Inhibitor, recommended concentration 1 uM
[12] = target: T5, Nuclear receptor ROR-alpha (Homo sapiens, UniProt P35398); assay: Affinity On-target Cellular interaction: (Reporter gene assay (HEK293T cells)) EUB0001157a RORA; format: functional, cell-based, HEK-293T; set-up: mode of action Inverse Agonist, recommended concentration 10 uM
[13] = target: T2, Nuclear receptor ROR-beta; assay: Affinity On-target Cellular interaction: (Reporter gene assay (HEK293T cells)) EUB0001157a RORB; format: functional, cell-based, HEK-293T; set-up: mode of action Inverse Agonist, recommended concentration 10 uM
[14] = target: T1, Nuclear receptor ROR-gamma; assay: Affinity On-target Cellular interaction: (Reporter gene assay (HEK293T cells)) EUB0001157a RORC; format: functional, cell-based, HEK-293T; set-up: mode of action Inverse Agonist, recommended concentration 10 uM
[15] = target: T2, Nuclear receptor ROR-beta; assay: Affinity On-target Cellular interaction: (Reporter gene assay (HEK293T cells)) EUB0001158a RORB; format: functional, cell-based, HEK-293T; set-up: mode of action Inverse Agonist, recommended concentration 1 uM
[16] = target: T5, Nuclear receptor ROR-alpha; assay: Affinity On-target Cellular interaction: (Reporter gene assay (HEK293T cells)) EUB0001158a RORA; format: functional, cell-based, HEK-293T; set-up: mode of action Inverse Agonist, recommended concentration 1 uM
[17] = target: T1, Nuclear receptor ROR-gamma; remark: listed apart in the source

T5 sequence (P35398 whole entry): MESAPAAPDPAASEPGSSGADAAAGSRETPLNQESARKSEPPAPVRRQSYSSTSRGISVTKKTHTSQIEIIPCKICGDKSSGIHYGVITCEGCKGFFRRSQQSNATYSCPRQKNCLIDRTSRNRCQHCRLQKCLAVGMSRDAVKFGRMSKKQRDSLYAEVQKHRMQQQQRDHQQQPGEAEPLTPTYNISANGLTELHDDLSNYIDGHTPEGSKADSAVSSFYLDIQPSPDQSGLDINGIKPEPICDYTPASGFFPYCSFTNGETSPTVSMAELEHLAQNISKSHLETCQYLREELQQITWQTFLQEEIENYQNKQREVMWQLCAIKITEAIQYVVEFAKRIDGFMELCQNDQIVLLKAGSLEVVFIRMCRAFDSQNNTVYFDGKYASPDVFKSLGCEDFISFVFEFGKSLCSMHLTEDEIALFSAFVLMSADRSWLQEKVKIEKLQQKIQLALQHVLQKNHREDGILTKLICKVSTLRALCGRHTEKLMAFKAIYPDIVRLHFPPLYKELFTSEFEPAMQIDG
Sequence of Adenosine kinase (P55263 whole entry): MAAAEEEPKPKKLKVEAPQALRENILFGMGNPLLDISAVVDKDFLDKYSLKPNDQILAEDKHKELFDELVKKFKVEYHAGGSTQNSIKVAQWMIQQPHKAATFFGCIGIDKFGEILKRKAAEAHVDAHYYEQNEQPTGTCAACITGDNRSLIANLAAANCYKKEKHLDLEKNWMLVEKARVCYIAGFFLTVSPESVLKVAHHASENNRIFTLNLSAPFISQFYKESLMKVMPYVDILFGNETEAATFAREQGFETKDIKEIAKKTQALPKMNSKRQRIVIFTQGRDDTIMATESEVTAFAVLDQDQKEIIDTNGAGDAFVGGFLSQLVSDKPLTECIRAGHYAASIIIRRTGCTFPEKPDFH
Sequence of Triacylglycerol hydrolase DDHD2 (O94830 whole entry): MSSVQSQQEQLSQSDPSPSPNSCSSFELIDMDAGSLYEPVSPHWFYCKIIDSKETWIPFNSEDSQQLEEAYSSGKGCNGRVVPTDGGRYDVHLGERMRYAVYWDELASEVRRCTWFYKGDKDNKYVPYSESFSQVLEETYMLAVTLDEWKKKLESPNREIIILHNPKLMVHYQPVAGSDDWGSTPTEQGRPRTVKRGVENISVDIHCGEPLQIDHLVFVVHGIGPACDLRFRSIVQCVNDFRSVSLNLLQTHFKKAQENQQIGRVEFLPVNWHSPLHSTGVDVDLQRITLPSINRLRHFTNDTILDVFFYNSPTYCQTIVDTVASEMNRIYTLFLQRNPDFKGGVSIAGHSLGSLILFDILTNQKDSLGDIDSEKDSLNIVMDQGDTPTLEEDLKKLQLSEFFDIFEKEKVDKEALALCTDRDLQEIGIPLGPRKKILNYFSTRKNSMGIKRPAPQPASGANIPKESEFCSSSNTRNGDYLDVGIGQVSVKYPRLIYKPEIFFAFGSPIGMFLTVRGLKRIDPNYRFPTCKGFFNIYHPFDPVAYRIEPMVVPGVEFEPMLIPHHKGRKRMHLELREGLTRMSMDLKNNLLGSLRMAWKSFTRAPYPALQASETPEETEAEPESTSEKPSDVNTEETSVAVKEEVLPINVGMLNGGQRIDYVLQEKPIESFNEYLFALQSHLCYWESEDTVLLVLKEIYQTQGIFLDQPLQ
Sequence of Nuclear receptor subfamily 1 group D member 2 (Q14995 whole entry): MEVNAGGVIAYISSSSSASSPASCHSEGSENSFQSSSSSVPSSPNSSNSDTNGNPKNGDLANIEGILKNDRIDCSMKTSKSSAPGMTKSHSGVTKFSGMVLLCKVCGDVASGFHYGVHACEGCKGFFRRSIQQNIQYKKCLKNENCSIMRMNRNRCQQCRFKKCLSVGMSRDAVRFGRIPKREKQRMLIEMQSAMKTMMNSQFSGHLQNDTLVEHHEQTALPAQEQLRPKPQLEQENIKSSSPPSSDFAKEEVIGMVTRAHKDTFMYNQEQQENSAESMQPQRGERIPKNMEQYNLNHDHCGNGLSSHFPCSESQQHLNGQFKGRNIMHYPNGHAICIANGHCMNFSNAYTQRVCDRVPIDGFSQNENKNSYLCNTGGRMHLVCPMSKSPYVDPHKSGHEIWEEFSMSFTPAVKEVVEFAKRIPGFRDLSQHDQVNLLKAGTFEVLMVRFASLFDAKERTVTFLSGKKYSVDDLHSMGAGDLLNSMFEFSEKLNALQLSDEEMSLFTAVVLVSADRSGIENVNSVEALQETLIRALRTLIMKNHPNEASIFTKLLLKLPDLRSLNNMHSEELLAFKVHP
Sequence of Poly [ADP-ribose] polymerase 1 (P09874 whole entry): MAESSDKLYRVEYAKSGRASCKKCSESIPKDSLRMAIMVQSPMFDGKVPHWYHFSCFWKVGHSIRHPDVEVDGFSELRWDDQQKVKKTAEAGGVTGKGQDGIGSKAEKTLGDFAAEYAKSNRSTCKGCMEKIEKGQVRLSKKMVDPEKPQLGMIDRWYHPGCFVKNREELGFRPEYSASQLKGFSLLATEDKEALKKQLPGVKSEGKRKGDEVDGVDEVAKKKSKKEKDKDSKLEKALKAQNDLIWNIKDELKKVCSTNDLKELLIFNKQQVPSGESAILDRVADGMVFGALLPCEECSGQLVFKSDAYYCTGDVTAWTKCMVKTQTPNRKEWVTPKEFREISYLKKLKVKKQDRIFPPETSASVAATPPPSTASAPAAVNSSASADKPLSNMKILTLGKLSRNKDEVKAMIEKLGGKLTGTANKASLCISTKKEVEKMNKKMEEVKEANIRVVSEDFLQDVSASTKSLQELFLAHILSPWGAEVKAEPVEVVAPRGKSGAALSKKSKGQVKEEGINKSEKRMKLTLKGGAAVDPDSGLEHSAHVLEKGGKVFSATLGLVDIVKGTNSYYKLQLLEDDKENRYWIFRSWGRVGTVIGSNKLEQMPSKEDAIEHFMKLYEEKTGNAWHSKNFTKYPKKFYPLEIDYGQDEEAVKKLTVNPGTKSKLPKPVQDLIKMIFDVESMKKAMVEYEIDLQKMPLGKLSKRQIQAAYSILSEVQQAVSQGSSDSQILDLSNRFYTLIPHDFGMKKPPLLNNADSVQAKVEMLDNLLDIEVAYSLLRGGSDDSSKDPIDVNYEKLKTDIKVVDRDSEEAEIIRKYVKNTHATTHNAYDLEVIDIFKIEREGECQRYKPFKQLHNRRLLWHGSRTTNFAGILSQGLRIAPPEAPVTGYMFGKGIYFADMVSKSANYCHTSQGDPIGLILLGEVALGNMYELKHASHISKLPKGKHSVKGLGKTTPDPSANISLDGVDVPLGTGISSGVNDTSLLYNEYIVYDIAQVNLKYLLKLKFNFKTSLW
Sequence of Nuclear receptor subfamily 1 group D member 1 (P20393 whole entry): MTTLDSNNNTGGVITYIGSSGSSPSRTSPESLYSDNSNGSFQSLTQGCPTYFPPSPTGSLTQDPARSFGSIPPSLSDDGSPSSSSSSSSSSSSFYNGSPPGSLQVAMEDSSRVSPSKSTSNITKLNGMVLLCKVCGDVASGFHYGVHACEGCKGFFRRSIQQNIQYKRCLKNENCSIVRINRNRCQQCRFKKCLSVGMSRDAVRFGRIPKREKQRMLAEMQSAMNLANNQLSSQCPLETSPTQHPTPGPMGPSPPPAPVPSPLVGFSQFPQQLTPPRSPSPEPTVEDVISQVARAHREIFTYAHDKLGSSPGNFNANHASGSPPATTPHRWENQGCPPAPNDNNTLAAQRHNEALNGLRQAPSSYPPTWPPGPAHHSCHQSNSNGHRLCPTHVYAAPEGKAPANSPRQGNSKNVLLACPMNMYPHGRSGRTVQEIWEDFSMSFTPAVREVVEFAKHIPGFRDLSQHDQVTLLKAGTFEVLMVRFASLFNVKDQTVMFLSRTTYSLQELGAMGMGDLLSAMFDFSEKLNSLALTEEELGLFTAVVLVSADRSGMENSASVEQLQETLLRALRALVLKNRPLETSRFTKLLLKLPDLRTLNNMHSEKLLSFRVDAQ
Sequence of Sodium- and chloride-dependent glycine transporter 1 (P48067 whole entry): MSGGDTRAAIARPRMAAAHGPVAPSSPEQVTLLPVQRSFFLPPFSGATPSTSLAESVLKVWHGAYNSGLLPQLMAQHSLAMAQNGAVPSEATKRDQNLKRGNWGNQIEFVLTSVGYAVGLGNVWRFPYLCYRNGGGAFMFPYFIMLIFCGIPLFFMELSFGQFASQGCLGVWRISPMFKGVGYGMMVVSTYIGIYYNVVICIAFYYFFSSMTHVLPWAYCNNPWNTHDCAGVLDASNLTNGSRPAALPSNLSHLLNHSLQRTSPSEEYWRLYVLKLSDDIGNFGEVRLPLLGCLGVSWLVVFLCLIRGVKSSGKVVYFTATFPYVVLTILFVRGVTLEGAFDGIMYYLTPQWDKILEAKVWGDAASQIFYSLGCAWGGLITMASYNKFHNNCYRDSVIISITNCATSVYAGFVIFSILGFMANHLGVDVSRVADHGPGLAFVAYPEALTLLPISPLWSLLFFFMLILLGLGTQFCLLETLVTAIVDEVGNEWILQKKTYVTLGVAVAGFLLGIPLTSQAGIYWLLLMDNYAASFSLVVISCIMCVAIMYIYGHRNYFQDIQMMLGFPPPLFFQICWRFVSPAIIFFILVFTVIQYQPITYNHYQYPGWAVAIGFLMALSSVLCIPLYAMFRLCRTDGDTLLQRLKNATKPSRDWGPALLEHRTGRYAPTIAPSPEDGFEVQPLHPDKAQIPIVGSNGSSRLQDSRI
Sequence of Nuclear receptor subfamily 1 group I member 2 (O75469 whole entry): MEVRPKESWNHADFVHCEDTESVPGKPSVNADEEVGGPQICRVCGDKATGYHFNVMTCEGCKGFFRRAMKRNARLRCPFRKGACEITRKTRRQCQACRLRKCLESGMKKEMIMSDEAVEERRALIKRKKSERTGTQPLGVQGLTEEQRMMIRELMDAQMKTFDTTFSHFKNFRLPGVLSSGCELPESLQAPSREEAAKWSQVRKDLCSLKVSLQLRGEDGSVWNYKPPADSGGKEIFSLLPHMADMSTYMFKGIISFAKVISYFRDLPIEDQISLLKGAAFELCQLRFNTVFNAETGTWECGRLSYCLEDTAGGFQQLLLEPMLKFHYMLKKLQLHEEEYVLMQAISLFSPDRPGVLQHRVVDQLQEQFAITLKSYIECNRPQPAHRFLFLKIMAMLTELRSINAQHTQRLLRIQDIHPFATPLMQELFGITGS

EC50 [1]: 3 µM | EC50 [2]: 2 µM
SMILES: CCCCCNC(=O)N1CCC(CN(Cc2ccc(Cl)cc2)Cc2ccc([N+](=O)[O-])s2)C1 (stereo not drawn) [SR9011]

EC50 [4]: 2 µM
SMILES: O=C(Nc1ccc(C(O)(C(F)(F)F)C(F)(F)F)cc1)c1ccc(C(F)(F)F)cc1

EC50 [8]: 3.3 µM | EC50 [9]: 2.9 µM
SMILES: C[C@H](CCOc1cccc(CC(=O)O)c1)N(Cc1cccc(C(F)(F)F)c1Cl)CC(c1ccccc1)c1ccccc1

IC50 [11]: < 0.1 µM
SMILES: CCN(c1cc(C#CCN2CCOCC2)cc(C(=O)NCc2c(C)cc(C)[nH]c2=O)c1C)[C@H]1CC[C@H](N(C)CCOC)CC1

Continued, molecule first:

SMILES: CC(C)c1c(CN(C)C(C)Cc2ccccc2)n(C)n(-c2ccccc2)c1=O (stereo not drawn) [FAMPROFAZONE]
EC50 [3]: 0.13 µM

SMILES: Nc1ncnc2nc(-c3ccc(N4CCOCC4)nc3)cc(-c3cccc(Br)c3)c12
IC50 (Adenosine kinase): 0.051 µM

SMILES: COc1cc(O)c(C(CC(=O)N2C[C@H](C)C[C@H](C)C2)c2ccc3c(c2)OCO3)c(OC)c1 (stereo partly drawn)
IC50 [5]: 1.3 µM

SMILES: CNCc1ccc(-c2cc3cc(F)cc(C(N)=O)c3o2)cc1
IC50 [6]: 0.0699 µM

SMILES: O=C(N(CCc1ccccc1)C1CCCCC1)n1ncc(-c2ccc(OC(F)(F)F)cc2)n1
IC50 [7]: 0.0036 µM

SMILES: CN(CCOc1ccc(-c2ccc3c(c2)OCO3)cc1C(C)(C)C)CC(=O)O
IC50 [10]: 0.0158 µM

SMILES: O=S(=O)(Nc1ccc(C(O)(C(F)(F)F)C(F)(F)F)cc1)c1cccs1
IC50 [12]: 0.5 µM | IC50 [13]: 1.5 µM | IC50 [14]: 3.2 µM

SMILES: CC(=O)Nc1nc(C)c(S(=O)(=O)Nc2ccc(C(O)(C(F)(F)F)C(F)(F)F)cc2)s1
IC50 [15]: 1.1 µM | IC50 [16]: 0.9 µM | IC50 [17]: 0.11 µM
